We go through two compounds from patent US10980830B2, “Systems and methods for treating skin conditions with magnesium ion compositions” (priority 2017, dated 2021).

For data set [1], the system named is adhesive capsulitis. Conditions: for pain with active range of motion of the shoulder: after 16 hours of continued use. The procedure:
A second attempt using transdermal magnesium treatment to affect the pain and inflammation associated with adhesive capsulitis was performed. A 1.3 cc of 50% magnesium sulfate solution (APP Fresenius Kabi Lake Zurich, Ill. NDC63323-064-10) was placed on the positive dispersal pad in an iontophoresis device (iontoPatch 80 manufactured by Travini Medical). The NaCl solution supplied with the device was placed on the negative patch. The positive patch was placed over the tender area on the lateral shoulder and kept in place for 10 hours. It was applied at 8:00 pm and removed the next morning before showering at 6:00 am. […] After showering a second replacement patch prepared in the same manner was placed at 6:15 am, 15 minutes after the first iontoPatch was removed.
The positive side of the patch now placed over a tender area on the anterior shoulder. The second patch application was kept in place for a total of 13.5 hours.

For data set [2], the system named is plaque psoriasis. From the text:
In another example, a person with plaque psoriasis on the extensor surface of their right knee for over 15 years was started on magnesium treatment. Prior treatment with topical hydrocortisone was stopped two weeks prior. Applications using Johnson+Johnson Large Sterile Waterproof Pads with QUILTVENT™ Technology. 1.8 cc solution of 20% magnesium sulfate solution (APP Fresenius Kabi Lake Zurich, Ill. NDC63323-064-10, 50% solution diluted with sterile water) was applied every third day for eight hour durations. […] After the 10 applications of the 20% magnesium sulfate solution, the strength of the solution was increased to 40% for the next ten applications and to 50% for the following 10 applications.
A trial using a 50% solution of magnesium chloride was made by dissolving the magnesium flakes with distilled water (Hinkley Springs) and applied to the Johnson+Johnson Large Sterile Waterproof Pads with QUILTVENT™. Applications were initially for eight hours every third day. […] Following the twentieth application the applications were increased to twelve hour duration with frequency increased to every other day. […] Applications were stopped to determine if total remission been achieved. […] Treatment was continued for three additional treatments.

Data set [3] relates to recurrent plaque psoriasis.
Data set [4] relates to plaque psoriasis. This is another data set of the same source.
Source text: Johnson+Johnson Large Sterile Waterproof Pads with QUILTVENT™ Technology were obtained. These are similar to large waterproof bandaids measuring 2.875 inches×4 inches with a central pad that measured 1.85 inches×3 inches.
In data set [5] the test system is pain and stiffness of the lower back. As to the method:
In an effort to determine if passive diffusion of magnesium ions applied over a larger surface area under a hydrocolloid dressing could affect the pain and stiffness of the lower back approximately 0.8 mL of 50% magnesium chloride solution was sprayed on a 4″×4″ hydrocolloid patch (DuoDERM™ Extra Thin CGF Dressing, by ConvaTec) and the moist patch was placed over the lumbar spine where the pain was now localized. This was kept in place during an 8 hour period. […] A third application of a pre-moistened Duoderm dressing, this time with approximately 0.5 mL of 40% magnesium chloride solution, sprayed onto the surface prior to application to the lumbar spine area and worn for 48 hours continuously.

Data set [6] has as its system adhesive capsulitis. Conditions: 1.8 cc of 58% wt/vol on waterproof pad, normal skin, kept in place 24 hours. From the text:
The same Johnson+Johnson waterproof pad was applied to normal skin over my right shoulder affected with an exacerbation of adhesive capsulitis.

In data set [7] the test system is sacroiliac (SI) joints pain and stiffness. From the text:
In another example, a trial of transdermal magnesium ions delivered via iontophoresis in an effort to relieve pain, tenderness, and stiffness localized to sacroiliac (SI) joints. A patient with symptoms including exacerbation of chronic low back pain associated with pain, stiffness, and tenderness of both sacroiliac joints with pain radiating to the right iliac crest over a five week period. Symptoms were moderate to severe enough to make standing erect difficult at times and walking was slow and deliberate.
An iontophoresis pad with 120 mg of magnesium chloride diluted in 4 cc of distilled water was placed over the right sacroiliac joint for 80 minutes for delivery of 40 mA minutes with a delivery setting of 0.5 mA/minute at 8:00 pm.
A second identical dose was delivered with the same iontophoresis electrodes in place. […] Ten minutes following delivery of the first dose to the […] SI joint a second identical iontophoresis dose was delivered with the same electrodes in place.

For data set [8], the system named is chronic lower back pain. From the text:
In an effort to determine a threshold for therapeutic response the patient was started on gradually increasing concentrations of magnesium chloride placed on a 4 in.×4 in. hydrocolloid dressing (DupDERM™ Extra Thin CGF, by Convatec). Dosages were always approximately 1 cc sprayed onto surface of the dressing using a 20% solution of Magnesium Chloride (Mylan, NDC 674-134-50) diluted to strengths of 2%, 5%, 10% 15%, and undiluted 20%. Sterile water was used as the diluent (Hospira NDC 0409-4887-17). Dressings were kept in place for 8 hours. This method of application continued with daily graduation in the strength of solution applied. […] Using the same method of application, the dosages were increased to 30%, 40% and 50% solutions now made with magnesium flakes dissolved in distilled water.

[9] abbreviates: 1.8 cc of 20% solution, 8 h every third day, following 7 applications.
The mark [10] stands for this setting: after increasing strength to 40% and 50% (10 applications each).
Where [11] appears, read: 50% solution, after 15 applications.
Setting [12] is: 50% solution, after 20 applications plus ten 12 h applications every other day.
Setting [13] is: 50% solution, two weeks after applications were stopped.

Like-named read-outs stand apart in the source and are kept apart here. Bounds are passed on as bounds.

Consider `O=S(=O)([O-])[O-].[Mg+2]` [magnesium sulfate], for which the “improvement in pain with active range of motion of the shoulder” value in data set [1] (1.3 cc of 50% solution, iontophoresis, after 10 hours) is recorded as 40%. In data set [1] (50% solution, iontophoresis, after 16 hours), the “active range of motion, affected right versus unaffected left shoulder” value is given as “no difference”. The “pain with active range of motion of the shoulder” value in data set [1] (50% solution, iontophoresis) is “no pain”. Moreover, the “pain with active range of motion of the shoulder” value in data set [1] (50% solution, iontophoresis, listed as magnesium) is recorded as “complete relief”. Besides, the “reduction in pain with active range of motion of the shoulder” value in data set [1] (50% solution, iontophoresis, patches worn for a total of 12 hours) turned out to be 80%. In data set [1] (after two iontophoresis patches with 50% solution), the “duration of the beneficial effect” value was “no further treatment was required over the next 10 months”. In data set [2] (setting [9]), the itching entry is listed as “almost total relief” and the reduction in scaling was found to be 50%. For the same compound, the course of improvement result in data set [2] (20%, then 40% and 50% solution) is given as “plateaued following the first 10-12 applications”. Besides, in data set [2] (setting [10]), the scaling between applications entry is reported as “persistent scaling” and the “thickness of persisting dermal hypertrophy” value was “approximately 3 mm”. For the same compound, in data set [3] (1 cc of 1% solution intra-dermal once daily for four days, not covered, day 14 following the injections), the “resolution of scaliness and erythema” value is reported as 80%. The “inflammatory process and erythema” value in data set [3] (1 cc of 1% solution intra-dermal once daily for four days, not covered, over the next few days) is reported as “reduction”. Also, the “remission status of the recurrent 1 cm plaque” value in data set [3] (after 1% injections plus iontophoresis of 1.5 cc 50% solution on days 16 and 18, by day 28) is on record as “complete remission”. For the same compound, the “effect on a small area of recurrent plaque psoriasis” value in data set [3] (intra-dermal injections of 1% solution) is listed as “effective”.

For `[Cl-].[Cl-].[Mg+2]` [magnesium chloride], the “skin finding over the previous psoriasis plaque” value in data set [4] (58% wt/vol solution kept in place for 24 hour periods, resolved with days) is “small 2-4 mm painless flat scabs developed”. For the same compound, in data set [4] (58% wt/vol solution on occlusive dressing, following the first application), the “time until erythema and scales of the plaque started to improve” value was not above 24 h. In data set [4] (58% wt/vol solution, twelve applications, by the start of week four), the “remission status of the psoriasis plaque” value is reported as “complete remission”. In data set [4] (after pads, prophylactic daily 50% wt/vol spray into the fourth month), the “duration of complete remission of the psoriatic lesion” value was “continued into the twelfth month”. Moreover, the “pain and stiffness in the lower back” value in data set [5] (50% solution on hydrocolloid dressing for a total of 9.5 hours) was “complete relief”. In data set [5] (50% solution on hydrocolloid patch, after removal of the first patch), the “skin at the application area after the first patch” value is recorded as “slightly hyperemic”. Besides, the “sensation on application of the second patch” value in data set [5] (50% solution on hydrocolloid patch, second application to the same area) was “transient burning sensation”. Moreover, in data set [5] (about 0.8 mL of 50% solution on 4x4 in. hydrocolloid patch, 8 hour period), the “improvement in pain and stiffness of the lower back” value was determined as 80%. Also, the “duration of complete relief” value in data set [5] (after 9.5 hours of 50% solution on hydrocolloid dressing) came to 48 h. Moreover, in data set [5] (on the third day after the 50% solution patches), the “severity of recurring discomfort and stiffness relative to the original pain and stiffness” value was 20%. Further, the “discomfort and stiffness of the lower back” value in data set [5] (third dressing, about 0.5 mL of 40% solution, after eight hours) is listed as “Resolution”. Moreover, in data set [6], the “pain associated with adhesive capsulitis” value was “no improvement”. The “improvement in pain and stiffness of the right SI joint” value in data set [7] (120 mg in 4 cc water, iontophoresis 40 mA minutes, five hours after the first dose) is on record as “approximately 50%”. Further, the “duration of the improvement” value in data set [7] (after two iontophoresis doses on each SI joint) is “lasted throughout the next day”. Further, in data set [7] (two iontophoresis doses of 120 mg in 4 cc, five hours after completion), the “improvement in pain and stiffness of the right SI joint” value is 80%. Moreover, the “reduction in pain and stiffness of the left SI joint” value in data set [7] (two iontophoresis doses of 120 mg in 4 cc, two hours after treatments ended) was approximately 90%. The “improvement in pain and stiffness” value in data set [8] (30%, 40% and 50% solutions on hydrocolloid dressing, 8 hours) is on record as “incremental therapeutic benefit”. Also, the “greatest benefit estimated by the patient” value in data set [8] (50% solution on hydrocolloid dressing, after the 8 hour application) is given as “over 70%”. Besides, the “improvement in pain or stiffness” value in data set [8] (about 1 cc of 2% or 5% solution on hydrocolloid dressing, 8 hours) was “no therapeutic improvement”. The “improvement in pain and stiffness” value in data set [8] (about 1 cc of 10% solution on hydrocolloid dressing, after 8 hours) is 10-20%. Further, the “improvement in pain and stiffness, estimate of the patient” value in data set [8] (about 1 cc of 15% and 20% solution on hydrocolloid dressing, 8 hours) is 20-40%. In data set [2] (50% solution, 8 h every third day, within days of starting), the “fine scaliness and inflammation, early response” value is given as “immediate improvement”. Moreover, in data set [2] (setting [11]), the dermal hypertrophy result is “improvement”, the fine scales result was “elimination” and the improvement in inflammation was 90-95%. For the same compound, in data set [2] (setting [12]), the dermal hypertrophy result was “resolved” and the fine scaliness entry is on record as “resolved”. In data set [2] (setting [13]), the “finding under double polarized light head set apparatus” value was “small erythematous islands were visualized” and the skin appearance entry is recorded as “appeared normal”.
